Calls of active or inactive are those of the source. The rule behind the calls is not given here.
Each compound was assayed against Serine/threonine-protein phosphatase PP1-alpha catalytic subunit (Homo sapiens) (UniProt P62136) (assay: PP1 phosphatase inhibitors, late-stage follow-up, biochemical, OMFP substrate, fluorescence (AID 652109)). Details: PP1 dephosphorylation of OMFP, at 6.7 µM, active compounds read high.
Serine/threonine-protein phosphatase PP1-alpha catalytic subunit (Homo sapiens), sequence (P62136 whole entry, looked up): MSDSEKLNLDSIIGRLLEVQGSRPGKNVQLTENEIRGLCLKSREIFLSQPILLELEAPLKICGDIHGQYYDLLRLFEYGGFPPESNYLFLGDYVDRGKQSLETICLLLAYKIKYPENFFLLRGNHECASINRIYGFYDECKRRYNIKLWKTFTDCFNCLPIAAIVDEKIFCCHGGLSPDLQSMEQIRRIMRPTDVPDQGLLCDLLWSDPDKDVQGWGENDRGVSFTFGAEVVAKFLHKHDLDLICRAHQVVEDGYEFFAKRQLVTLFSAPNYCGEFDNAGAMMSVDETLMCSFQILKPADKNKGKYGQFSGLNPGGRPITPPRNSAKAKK
`CCOC(=O)c1nn(-c2ccc(C)cc2)c(=O)c2c(N)scc12` was tested, and the inhibition was 6.08% (inactive). Compound `CCOC(=O)c1cnc(-n2nc(C)cc2C)nc1NCCc1ccccc1` has an inhibition of 65.2%. For `Oc1ccc(/C=N/Nc2cc(N3CCOCC3)nc(N3CCOCC3)n2)c(O)c1`, the inhibition was 5.24% (inactive). `CCn1c2ccccc2c2cc(NC(=O)COC(=O)c3ccc(NC(=O)CC#N)cc3)ccc21` showed an inhibition of 47.2%. For `CCOC(=O)c1sc(N2C(=O)C(O)=C(C(=O)c3ccco3)C2c2cccc([N+](=O)[O-])c2)nc1C` (centres undefined), the inhibition was 32.7%. `COc1ccc(C(=O)c2nccc3cc(OC)c(OC)cc23)cc1OC` was tested, and the inhibition was 0.984% (inactive). With `Oc1cccc(/C=N/Nc2cc(N3CCCC3)nc(N3CCCC3)n2)c1` the inhibition was 23.5% (inactive). Compound `COc1ccc(Cl)cc1C(=O)Nc1cccc(-c2ccc3nncn3n2)c1` has an inhibition of 60.4%. For `O=C(NC1(O)C(=O)c2ccccc2C1=O)c1c(Cl)cccc1Cl`, the inhibition was 0.361% (inactive). `O=C(O)c1cc(-c2ccc(Cl)c(Cl)c2)n(-c2ccccc2)n1` was tested, and the inhibition was 60.5%. For `Cc1ccc(C(=O)NNc2cc(N3CCCC3)nc(N3CCCC3)n2)cc1`, the inhibition was 3.05% (inactive). Work on `CC(C)(CS(=O)(=O)[O-])NC(=O)CC[N+](C)(C)CCO` yielded an inhibition of 49.4%. `c1ccc(-c2nccc(-c3ccc(-n4cnc5ccccc54)cc3)n2)nc1` was tested, and the inhibition was 62.4%. In the case of `COc1ccc(NC(=S)Nc2ccc3nsnc3c2)cc1`, the inhibition is reported as 2.7% (inactive). In the case of `CCCCN(CC)c1nc(N)c2c(N)nc(OCC)cc2c1C#N`, the inhibition is reported as 3.48% (inactive). In the case of `CCCCn1c(NC(=O)c2ccco2)c(C(=O)OCC)c2nc3ccccc3nc21`, the inhibition is reported as -4% (inactive). `CCOC(=O)c1cnc(-n2cc(C)cn2)nc1NCc1ccc2c(c1)OCO2` was tested, and the inhibition was 12.9% (inactive). `COc1cnc(-c2ccccn2)nc1Sc1ccc(F)cc1` showed an inhibition of 52.5%. With `COc1ccc(CN2C(=O)Cc3c2nc(N)c2c(N)nc(N4CCCCC4)c(C#N)c32)cc1` the inhibition was 6.16% (inactive). With `COc1ccc(OCCCC(=O)Nc2nc(-c3ccccn3)cs2)cc1` the inhibition was 33.3%. Compound `Nc1nc(-c2ccccn2)nc(N)c1Cc1ccc(Cl)cc1Cl` has an inhibition of 65.9%. In the case of `COc1ccc2c(Cl)c(C(=O)N/N=C/c3ccc4c(c3)OCO4)sc2c1`, the inhibition is reported as 23% (inactive). Work on `O=C(O)c1cc(-c2ccc(Cl)cc2)n(-c2cccc(Cl)c2)n1` yielded an inhibition of 57.5%. `O=S(=O)(Cc1cc(NCc2ccccc2)nc(-c2ccccn2)n1)c1ccccc1` was tested, and the inhibition was 44.6%. `CCOC(=O)c1cnc(-n2nc(C)cc2C)nc1NCc1ccccc1` showed an inhibition of 58.3%. For `O=C(O)c1cc(-c2ccc(Cl)c(Cl)c2)n(-c2ccc(F)cc2)n1`, the inhibition was 57.1%. `N#Cc1c(-c2ccc(Cl)cc2)cc(-c2cccs2)nc1SCC(=O)O` showed an inhibition of 46.6%. Work on `COc1cnc(-c2ccccn2)nc1Sc1ccc(Cl)cc1` yielded an inhibition of 53.2%. In the case of `Nc1cc2nsnc2cc1Br`, the inhibition is reported as -4.44% (inactive). With `Cc1cc(C)c(S(=O)(=O)/N=C2\C=C(Sc3ncn[nH]3)C(=O)c3ccccc32)cc1C` the inhibition was 5.9% (inactive). In the case of `Cc1[nH]n(-c2ccccc2)c(=O)c1C(c1ccc([N+](=O)[O-])cc1)c1c(C)[nH]n(-c2ccccc2)c1=O`, the inhibition is reported as -0.696% (inactive). In the case of `O=C1CCCC2=C1C1(O)C(=O)c3ccccc3C1(O)O2` (centres undefined), the inhibition is reported as 3.09% (inactive). Work on `COc1cnc(-c2ccccn2)nc1Sc1ccccc1Cl` yielded an inhibition of 68.5%. For `CCOc1ccc(NC(=S)Nc2ccc3nsnc3c2)cc1`, the inhibition was 4.8% (inactive). With `CCOC(=O)C1=C(C)OC2(O)c3ccccc3C(=O)C12O` (centres undefined) the inhibition was 18.6% (inactive). With `N#Cc1c(N2CCCC(O)C2)nc(N)c2c(N)nc3c(c12)CC(=O)N3C12CC3CC(CC(C3)C1)C2` (centres undefined) the inhibition was 8.91% (inactive). For `COc1ccc(NC(=O)C2C3CCC(O3)C2C(=O)O)c(OC)c1` (centres undefined), the inhibition was 34.9%. In the case of `O=C(NC1(O)C(=O)c2ccccc2C1=O)c1ccccc1`, the inhibition is reported as -2.88% (inactive). With `Oc1ccccc1/C=N/Nc1cc(N2CCCC2)nc(N2CCCC2)n1` the inhibition was 4.78% (inactive). For `CC(=O)C(C(C)=O)C1(O)C(=O)c2ccccc2C1=O`, the inhibition was 0.756% (inactive). `O=C1Nc2ccccc2N2CCCC12` (centres undefined) was tested, and the inhibition was -0.206% (inactive). In the case of `O=C(O)C1C2CCC(O2)C1C(=O)NC1CCCCC1` (centres undefined), the inhibition is reported as 25% (inactive). `Cc1ccc(C(=O)NC2(O)C(=O)c3ccccc3C2=O)cc1C` was tested, and the inhibition was -0.875% (inactive). `Clc1ccc(-n2nnnc2-c2cnc(-c3ccccn3)nc2-c2cccs2)cc1` gave an inhibition of 67.4%. `c1ccc(Nc2nc(-c3ccccn3)cs2)cc1` showed an inhibition of 63.7%. `COc1cnc(-c2ccccn2)nc1Sc1cccc(Cl)c1` gave an inhibition of 67.6%. In the case of `COc1cc(Br)c(C(=O)c2nccc3cc(OC)c(OC)cc23)cc1OC`, the inhibition is reported as -4.95% (inactive). For `O=c1[nH]c(Nc2ccccc2)cc2ccccc12`, the inhibition was 9.24% (inactive). `COc1cnc(-c2ccccn2)nc1Sc1ccccc1` was tested, and the inhibition was 60.7%. `COc1ccccc1Sc1nc(-c2ccccn2)ncc1OC` was tested, and the inhibition was 65.9%. In the case of `CN1CCN(C(c2ccccn2)c2cc(Cl)c3cccnc3c2O)CC1` (centres undefined), the inhibition is reported as 74%. Work on `O=C(Nc1nc(-c2ccccn2)cs1)C1CC(=O)N(c2ccc3c(c2)OCCO3)C1` (centres undefined) yielded an inhibition of 49.4%. With `COc1ccc(Sc2nc(-c3ccccn3)ncc2OC)cc1` the inhibition was 71.2%. In the case of `COc1ccc(Cn2c(N)c(C(=O)NCc3ccco3)c3nc4ccccc4nc32)cc1OC`, the inhibition is reported as 3.29% (inactive). With `COc1cnc(-c2ccccn2)nc1Oc1cccc(Cl)c1` the inhibition was 49.5%. For `COc1cnc(-c2ccccn2)nc1Oc1cccc(C(F)(F)F)c1`, the inhibition was -4.5% (inactive). Work on `CCOC(=O)c1cnc(-n2nc(C)cc2C)nc1NC1CCCCC1` yielded an inhibition of 57.6%. For `Cc1ccc(-n2nc(C(=O)O)cc2-c2ccc(Cl)cc2)cc1`, the inhibition was 56%. With `CCOC(=O)c1sc2nc3c(SCC(=O)O)cc(C(=O)c4cc(F)ccc4O)cn3c(=O)c2c1C` the inhibition was 67.8%. `Cc1nnc(NC(=O)C2C3C=CC(O3)C2C(=O)O)s1` (centres undefined) was tested, and the inhibition was 8.42% (inactive). `CCOC(=O)c1cnc(-n2nc(C)cc2C)nc1NC(C)c1ccccc1` (centres undefined) showed an inhibition of 68.8%. In the case of `CCCN(CC1CC1)c1nc(N)c2c(N)nc(OC)cc2c1C#N`, the inhibition is reported as 3.83% (inactive). For `COc1cnc(-c2ccccn2)nc1Sc1ccc(C)cc1`, the inhibition was 65.8%. With `O=C(NC1(O)C(=O)c2ccccc2C1=O)c1ccc(C(F)(F)F)cc1` the inhibition was 6.8% (inactive).
